Experimental data taken from US20210220184A1, “ABSORBENT TAMPON FOR TREATMENT OF MENSTRUAL SYMPTOMS” (Anne's Day Ltd, priority 2018, published 2021).

Test system: women with a history of mild or sever dysmenorrhea
Assay: Clinical study of tampon with CBD (randomized, controlled, crossover, two menstrual cycles; questionnaire and diary data)
Type: in vivo
Conditions: tests performed by the inventors; cannabidiol provided on the tampon
Description: The following study was performed to assess the safety and efficacy of a tampon covered with CBD oil.
Patients and Samples. A total of 130 women aged between 18 and 42 with a history of mild or sever dysmenorrhea were recruited for this study.
Study design. […] Patients were divided into two groups. One group used a hemp, CBD-infused tampon. The tampon contained […] of CBD oil. The tampon consisted of highly absorbent organic hemp fibers and organic hemp overwrap, organic cotton stitching thread and organic cotton removal cord, and a layer of CBD oil sprayed on top of the hemp overwrap. A second group used a standard off-the-shelf tampon product as a control. The off-the-shelf tampon consisted of blended rayon and viscose fibers with a non-woven rayon overwrap, cotton stitching thread and removal cord.
In a first visit, a patient underwent a gynecological exam and had blood drawn to test for STIs. If the patient fit inclusion criteria, in a second visit, the patient was divided into an experimental group or control group. A control test for levels of CBD in the bloodstream was performed on all participants and the results recorded. All participants were given diaries and instructed to write a detailed account of the comfort of tampon insertion and removal, comfort of wear, and levels of pain experienced. […]

C=C(C)[C@@H]1CCC(C)=C[C@H]1c1c(O)cc(CCCCC)cc1O [cannabidiol]
vaginal delivery from the tampon to treat symptoms associated with menstruation: can be delivered vaginally
